Test results taken from patent US8030493B2, “Monovalent and divalent salts of N-(5-hydroxynicotinoil) -L-glutamic acid exhibiting psychotropic (antidepressant and anxiolytic), neuroprotective, geroprotective and cerebroprotective action” (Obschestvo S Ogranichennoy Otvetstvennostyu “Natsionalnaya …, priority 2006, dated 2011).

Legend:
Format in all cases: in vivo
[1] = tested on: mice SAM P 10; assay: Antidepressant activity: forced swimming in mice SAM; details: 10 mg/kg, first 6 minutes of forced swimming
Experimental: Exp. Gerontolol. 1997, […]. et al. Age-related deterioration in conditional avoidance task in the SAM-P/10 mouse, an animal model of spontaneous brain atrophy. Brain Res., 1993, v. 608, p. 266-272). To assess depressive condition the method of forced swimming was used (Porsolt R. D. et al., Behavioral despair in rats: a new model sensitive to antidepressant treatment. Europ. J. […] The mice were placed into cylinder 10 cm in diameter and 25 cm height. Cylinder was filled with water by 1⁄3 (27° C.). After unsuccessful attempts to get out of the water the animals have typical immovable posture, which is regarded as manifestation of “despair”.

[2] = tested on: mice exposed to hypobaric hypoxia; assay: Acute hypobaric hypoxia in flow-exhaust chamber
Experimental: (§1) White nondescript male mice with body weight 22-28 g were used in the experiments. Each dose level was studied in 10 animals. Control animals received equivalent volume of distilled water. Nooglutyl was used as reference agent. Study compounds were administered intraperitoneally 40 minutes before the experiment.
(§2) Acute hypobaric hypoxia was simulated in flow-exhaust chamber. Pressure was measured with altimeter, and elevation speed with variometer. The animals were “elevated” at the speed 20 m/s to the stage at 11000 m. The exposure lasted 10 minutes. Then the animals were mover down to the baseline level for 5 minutes. Hypoxia with hypercapnia in hermovolume was created by placement of the animal into 200 ml hermetically sealed glass vessels. Life period of the animals under hypoxic conditions was recorded. Each group comprised 10 animals.

[3] = tested on: mice exposed to hypoxia in hermovolume; assay: Hypoxia with hypercapnia in hermovolume
Experimental: as §1, §2

[4] = tested on: rats with amnesia; assay: Antiamnestic activity: passive avoidance response (PAR) with amnesia by maximum electric shock; details: rats with electric shock amnesia, 24 hours after learning
Experimental: White nondescript male rats with body weight 250-280 g were used in the experiments. Each dose level was studied in 10 animals. Control animals received equivalent volume of distilled water. Nooglutyl was used as reference agent. Study compounds were administered intraperitoneally 40 minutes before the experiment. Experiment was carried out on the standard automated unit for passive avoidance response (Passive Avoidance) supplied by Lafayette Instrument Co., (USA) (Ader et al. Retention of a passive avoidance response as a function of the intensity and duration of electric shock. Psycho Sci. 1972, v. 26, p. 125-128; Voronina T. A. et al. “Textbook for Experimental (Preclinical Study) of novel pharmacological compounds”. Moscow, Medicina. 2005, p. 253-263 and 308-320). The unit was designed as small platform situated 1 m above the floor, which was illuminated with special lamp, and dark chamber with electrode floor connected with the platform. The rat was placed on illuminated platform in front of the entry to the dark chamber with its tail directed to the entry; the animal preferred dark chamber and quickly ran into it. In the dark chamber the animal received single pain stimulus with electric current (0.45 mA) and memorized that it was dangerous to enter dark chamber. Duration of the stimulus was determined from the running out of the animal from the dark chamber. To achieve amnesia maximum electric shock was used (50 Hz, 0.2 sec), which was made through corneal electrodes immediately after learning. Electric shock caused obliteration of the memory trace. Test for reproduction of passive avoidance response (PAR) (for retention of memory trace) was performed 24 hours after learning session and electric shock. The animal was placed on illuminated platform once again, and time of the presence on illuminated platform and dangerous dark chamber (no current was conducted to the floor during reproduction of PAR).
Control trained animals with reproduction of PAR without electric shock preferred to stay on illuminated platform. Obliteration of training with electric shock causes amnesia in the animals; as a result, the animals with short latent period enter dark chamber and stay there considerably longer than animals without amnesia (Table 2).

[5] = tested on: rats with hemorrhagic stroke; assay: Hemorrhagic stroke: reproduction of passive avoidance response; details: Nimodipin at 01.mg/kg
Description: White nondescript male rats with body weight 200-250 g, which lived in vivarium and had feed (standard palletized feed) and water ad libitum, with natural alternation of day and night, were used in the experiments. Hemorrhagic stroke (local cerebral hemorrhage) was simulated according to method by A. N. Makarenko et al. (Method of local hemorrhage simulation I various structures of the brain in experimental animals. Journal Visshei Nervnoy Deyatelnosti—Journal of Higher Nervous Activities, 2002, v. 52, No 6, p. 765-768). In nembutal-anesthetized rats (40 mg/kg, i.m.) destruction of the brain tissue in capsule interna area was made with the use of special device (mandarin-knife) followed by application of blood (0.02-0.03 ml) taken from under the rat's tongue to the damaged area (within 2-3 minutes). False-operated animals underwent scalping and craniotomy. The animals were divided into 5 groups: intact rats, false-operated rats, animals with hemorrhagic stroke received nooglutyl at 20 mg/kg, and animals with hemorrhagic stroke received Compound I at 20 mg/kg. Effects were recorded within 24 hours and 14 days after the surgery. Learning ability and memory of the rats was examined in the model of passive avoidance response (PAR, Passive Avoidance supplied by Lafayette Instrument Co., USA). To determine neurological deficit in the animals Stroke-index McGrow scale modified by I. V. Gannushkina (Functional architectonics of the brain, Moscow, Medicina, 1977, 224 p.) was used. The severity of the condition was determined by the sum of the points. The number of rats with mild symptoms up to 2.5 points of Stroke-index scale (apathy, weakness of the extremities, unilateral semiptosis, tremor, circus movements) and severe manifestations of neurological disorders (3 to 10 points)—paresis of the extremities, palsy of low extremities, lateral position. The animals received single dose of nooglutyl and Compound I at the same dose 20 mg/kg intraperitoneally within 3-3.5 hours after the surgery. Controlled animals were treated with saline. At onset of the experiment each group comprised 15-20 animals. Mortality of the rats was recorded throughout the observation period (14 days). Statistical analysis was made using parametrical and non-parametrical methods and Biostat software. Nimodipin administered at 01.mg/kg according to above scheme was considered as a standard.

[6] = 30 mg/kg intraperitoneally 40 minutes before the experiment
[7] = 60 mg/kg intraperitoneally 40 minutes before the experiment
[8] = 120 mg/kg intraperitoneally 40 minutes before the experiment
[9] = PAR reproduction within 24 hours
[10] = PAR reproduction within 14 days

SMILES | Period of active behaviour [1] | Life interval of mice (minutes) exposed to hypobaric hypoxia [2, 6] | Life interval of mice (minutes) exposed to hypobaric hypoxia [2, 7] | Life interval of mice (minutes) exposed to hypoxia in hermovolume [3, 6] | Life interval of mice (minutes) exposed to hypoxia in hermovolume [3, 7] | Life interval of mice (minutes) exposed to hypoxia in hermovolume [3, 8] | Time of presence of animals while PAR reproduction (seconds) in the dark chamber ([4]; 25 mg/kg intraperitoneally) | Time of presence of animals while PAR reproduction (seconds) on the illuminated platform ([4]; 25 mg/kg intraperitoneally) | Time of presence of animals while PAR reproduction (seconds) in the dark chamber ([4]; 50 mg/kg intraperitoneally) | Time of presence of animals while PAR reproduction (seconds) on the illuminated platform ([4]; 50 mg/kg intraperitoneally) | Latent period of entry to dark chamber (c) [5, 9] | Number of animals, which did not enter dark chamber (%) [5, 9] | Latent period of entry to dark chamber (c) [5, 10] | Number of animals, which did not enter dark chamber (%) [5, 10]
CN(C)CCC=C1c2ccccc2CCc2ccccc21 [Amitryptilin, reference compound] | 225.10 ± 25.19 s | – | – | – | – | – | – | – | – | – | – | – | – | –
O=C([O-])CC[C@H](NC(=O)c1cncc(O)c1)C(=O)[O-].[Na+].[Na+] [Compound II, di-Na salt of N-(5-hydroxynicotinoyl)-L-glutamic acid] | – | 6.51 ± 0.82 min | 5.95 ± 0.84 min | 14.1 ± 0.71 min | 16.3 ± 0.64 min | 17.8 ± 0.69 min | 78.7 ± 12.3 s | 41.3 ± 11.6 s | 67.5 ± 15.1 s | 52.5 ± 12.3 s | – | – | – | –
O=C([O-])CC[C@H](NC(=O)c1cncc(O)c1)C(=O)[O-].[K+].[K+] [Compound III, di-K salt of N-(5-hydroxynicotinoyl)-L-glutamic acid] | – | 3.91 ± 0.63 min | 5.52 ± 0.54 min | 14.2 ± 0.39 min | 15.9 ± 0.45 min | 17.4 ± 0.65 min | 70.7 ± 9.4 s | 49.3 ± 10.1 s | 68.6 ± 7.1 s | 51.4 ± 9.8 s | – | – | – | –
COCCOC(=O)C1=C(C)NC(C)=C(C(=O)OC(C)C)C1c1cccc([N+](=O)[O-])c1 (centres unmarked) [Nimodipin] | – | – | – | – | – | – | – | – | – | – | 123.7 ± 19.6 c | 58% | 77.5 ± 32.8 c | 33$ %
